Patent US20090215743A1, “Tricyclic benzazepine derivatives and their use” (Bayer HealthCare AG, priority 2004, published 2009)

Tested on: sterol biosynthesis
Assay: Inhibition of squalene and cholesterol synthesis in the liver of mice (sterol biosynthesis)
Type: in vivo
Conditions: male NMRI mice, 3 mg/kg p.o., 14C-mevalonolactone, liver lipid fraction
Description: Male NMRI mice are kept on normal rodent diet (NAFAG 3883) in metabolism cages. The light/dark cycle comprises 12 hours, from 06.00 to 18.00 and from 18.00 to 06.00. The animals are employed with a body weight of between 25 g and 40 g in groups of 8-10 animals in the experiments. Feed and drinking water are available to the animals ad libitum.
The substances are, according to their solubility, administered orally in aqueous tragacanth suspension (0.5%) or in Solutol HS15/saline solution (20:80) by gavage in a volume of 10 ml/kg of body weight or else injected subcutaneously in Solutol HS15/saline solution (20:80) or DMSO/saline solution (20:80). The corresponding control groups receive only the corresponding formulating agent without active substance. One or two hours after administration of the substance, the animals receive intraperitoneal injections of radiolabelled ^14C-mevalonolactone. One or two hours after the ^14C-mevalonolactone injection, or 24 hours after the administration of substance, the animals are sacrificed, the abdominal cavity is opened, and liver tissue is removed. Immediately after removal, the tissue is dried on the surface, weighed and homogenized in isopropanol. The further processing and extraction of the synthesized squalene and its secondary products takes place by a method of I. Duncan et al. (J. Chromatogr. 1979, 162), modified by H. Bischoff et al. (Atherosclerosis 1997, 135).
The extracted lipid fraction is taken up in 1 ml of isopropanol, transferred into scintillation vials, made up with 15 ml of Ultima Gold® scintillation fluid (Packard) and counted in a liquid scintillation counter (Beckmann Coulter LS 6500).
After calculation of the specific ^14C activity of the lipid fraction (dpm/g of liver tissue), the rate of synthesis of the radiolabelled ^14C squalene and of the ^14C secondary metabolites of the animals treated with the active substance is compared with the rate of synthesis of the radiolabelled ^14C squalene and of the ^14C secondary metabolites of the control animals treated only with formulating agent. A reduction in the rate of synthesis by ≧30% compared with the rate of synthesis for the control animals (=100%) is regarded as pharmacologically active if the statistical assessment by Student's t test results in a p value of <0.05.

SMILES | Inhibition relative to the untreated control group
COc1cccc(C2OC(CC(=O)O)c3nnc(C(C)(C)CO)n3-c3ccc(Cl)cc32)c1OC (racemic) [Example 62-2, [8-Chloro-6-(2,3-dimethoxyphenyl)-1-(2-hydroxy-1,1-dimethylethyl)-4H,6H-[1,2,4]triazolo[4,3-a]-[4,1]benzoxazepin-4-yl]acetic acid] | 77%
COc1cccc(C2OC(CC(=O)N3CCN(C(C)=O)CC3)c3nnc(C(C)C)n3-c3ccc(Cl)cc32)c1OC (stereo not shown) [Example 50, 4-[2-(4-Acetylpiperazin-1-yl)-2-oxoethyl]-8-chloro-6-(2,3-dimethoxyphenyl)-1-isopropyl-4H,6H-[1,2,4]triazolo[4,3-a][4,1]benzoxazepine] | 75%
COc1cccc(C2OC(CC(=O)O)c3nnc(C(C)C)n3-c3ccc(Cl)cc32)c1OC (racemic) [Example 3, [8-Chloro-6-(2,3-dimethoxyphenyl)-1-isopropyl-4H,6H-[1,2,4]triazolo[4,3-a][4,1]benzoxazepin-4-yl]acetic acid] | 81%
COc1cccc(C2OC(CC(=O)N3CCSC3)c3nnc(C(C)C)n3-c3ccc(Cl)cc32)c1OC (stereo not shown) [Example 41, 8-Chloro-6-(2,3-dimethoxyphenyl)-1-isopropyl-4-[2-oxo-2-(1,3-thiazolidin-3-yl)ethyl]-4H,6H-[1,2,4]triazolo[4,3-a][4,1]benzoxazepine] | 81%
